EC50 and AC50 data for 25 compounds are collected here from ChEMBL document CHEMBL1201862, “PubChem BioAssay data set” (2004).

Assay [1] in a line: inhibitors of SNCA 5'UTR-driven reporter translation, confirmation, H4 neuroglioma cells, luminescence (AID 1988). It counts as functional, cell-based.
The nature of assay [2]: Luminescence Cell-Based Dose Response HTS to Identify Inhibitors of 5'UTR Stem-Loop Driven Prion Protein mRNA Translation in H4 Neuroglioblastoma Cells. [Related pubchem assays: 1827 (Project Summary), 1813 (Primary HTS)]. It is filed as functional.
The nature of assay [3]: inhibitors of firefly luciferase expression or activity, dose response, H4 neuroglioma cells, luminescence (AID 1990). It is filed as functional, cell-based.
The next assay relates to H4. In words: Luminescence Cell-Based Dose Response HTS to Identify Activators of 5'UTR Stem-Loop Driven Prion Protein mRNA Translation in H4 Neuroglioblastoma Cells. [Related pubchem assays: 1829 (Project Summary), 1814 (Primary HTS)]. It counts as functional. The note with it: Homo sapiens.
Assay [4] is described as follows: Luminescence Cell-Based Dose Confirmation HTS to Identify Activators of 5'UTR Stem-Loop Driven Alpha-Synuclein mRNA Translation in H4 Neuroglioblastoma Cells. [Related pubchem assays: 1829 (Project Summary), 1814 (Primary HTS)]. It is filed as functional.
The nature of assay [5]: Luminescence Cell-Based Dose Response HTS to Identify Activators of Luciferase Translation or Activity in H4 […] Cells. [Related pubchem assays: 1829 (Project Summary), 1814 (Primary HTS)]. It is filed as functional.
The next assay has as its target Cytochrome P450 2C9 (Homo sapiens, UniProt P11712).
The target of another assay is Cytochrome P450 3A4 (Homo sapiens, UniProt P08684).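 Further: CYP3A4 tested as one member of a cytochrome P450 panel screen.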
Sequence of Cytochrome P450 3A4 (P08684 whole entry): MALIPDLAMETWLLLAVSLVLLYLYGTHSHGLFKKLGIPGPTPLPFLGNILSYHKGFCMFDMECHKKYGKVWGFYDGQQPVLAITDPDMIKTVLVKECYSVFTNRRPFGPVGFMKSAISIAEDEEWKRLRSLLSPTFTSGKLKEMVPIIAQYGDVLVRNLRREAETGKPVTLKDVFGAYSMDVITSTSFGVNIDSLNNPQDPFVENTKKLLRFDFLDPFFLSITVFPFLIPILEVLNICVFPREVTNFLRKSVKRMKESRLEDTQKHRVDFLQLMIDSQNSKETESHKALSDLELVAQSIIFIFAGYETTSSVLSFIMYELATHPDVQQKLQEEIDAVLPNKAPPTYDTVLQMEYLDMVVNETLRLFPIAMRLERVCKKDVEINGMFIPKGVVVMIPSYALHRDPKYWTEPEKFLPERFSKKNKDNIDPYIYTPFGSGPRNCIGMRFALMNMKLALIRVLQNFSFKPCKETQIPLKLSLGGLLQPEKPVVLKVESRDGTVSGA
Another assay deals with T1, Protein RecA (Mycobacterium tuberculosis, UniProt P9WHJ3).
T1 sequence (P9WHJ3 whole entry): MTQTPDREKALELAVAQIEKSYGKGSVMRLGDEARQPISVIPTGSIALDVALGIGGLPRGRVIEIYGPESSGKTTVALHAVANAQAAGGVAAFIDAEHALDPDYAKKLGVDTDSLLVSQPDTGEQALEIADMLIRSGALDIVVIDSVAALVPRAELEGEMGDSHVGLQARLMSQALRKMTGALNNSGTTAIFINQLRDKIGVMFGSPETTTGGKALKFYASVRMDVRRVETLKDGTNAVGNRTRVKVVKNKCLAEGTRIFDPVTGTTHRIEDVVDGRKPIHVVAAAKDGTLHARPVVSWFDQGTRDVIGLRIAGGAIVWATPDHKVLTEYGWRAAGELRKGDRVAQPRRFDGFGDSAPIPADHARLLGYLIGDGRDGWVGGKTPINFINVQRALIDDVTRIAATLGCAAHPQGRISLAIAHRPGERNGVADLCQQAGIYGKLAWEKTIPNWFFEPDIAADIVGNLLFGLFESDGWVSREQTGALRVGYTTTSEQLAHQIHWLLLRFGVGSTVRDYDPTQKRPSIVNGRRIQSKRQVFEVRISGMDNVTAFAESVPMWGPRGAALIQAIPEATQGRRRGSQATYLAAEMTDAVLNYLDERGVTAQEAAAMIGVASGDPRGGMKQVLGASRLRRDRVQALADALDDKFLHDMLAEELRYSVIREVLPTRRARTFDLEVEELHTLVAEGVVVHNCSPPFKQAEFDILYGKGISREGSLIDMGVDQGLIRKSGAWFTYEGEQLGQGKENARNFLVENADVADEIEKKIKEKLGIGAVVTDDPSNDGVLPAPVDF
In words: Fluorescence Cell-Free Homogeneous Dose Retest to Identify Inhibitors of RecA-Intein Splicing Activity. [Related pubchem assays (depositor defined):AID2097, AID2223, AID489010, AID492950]. It counts as functional.

For assay [6], the target named is T2, Replicative DNA helicase DnaB (Mycobacterium tuberculosis, UniProt P9WMR3).
T2 sequence (P9WMR3 whole entry): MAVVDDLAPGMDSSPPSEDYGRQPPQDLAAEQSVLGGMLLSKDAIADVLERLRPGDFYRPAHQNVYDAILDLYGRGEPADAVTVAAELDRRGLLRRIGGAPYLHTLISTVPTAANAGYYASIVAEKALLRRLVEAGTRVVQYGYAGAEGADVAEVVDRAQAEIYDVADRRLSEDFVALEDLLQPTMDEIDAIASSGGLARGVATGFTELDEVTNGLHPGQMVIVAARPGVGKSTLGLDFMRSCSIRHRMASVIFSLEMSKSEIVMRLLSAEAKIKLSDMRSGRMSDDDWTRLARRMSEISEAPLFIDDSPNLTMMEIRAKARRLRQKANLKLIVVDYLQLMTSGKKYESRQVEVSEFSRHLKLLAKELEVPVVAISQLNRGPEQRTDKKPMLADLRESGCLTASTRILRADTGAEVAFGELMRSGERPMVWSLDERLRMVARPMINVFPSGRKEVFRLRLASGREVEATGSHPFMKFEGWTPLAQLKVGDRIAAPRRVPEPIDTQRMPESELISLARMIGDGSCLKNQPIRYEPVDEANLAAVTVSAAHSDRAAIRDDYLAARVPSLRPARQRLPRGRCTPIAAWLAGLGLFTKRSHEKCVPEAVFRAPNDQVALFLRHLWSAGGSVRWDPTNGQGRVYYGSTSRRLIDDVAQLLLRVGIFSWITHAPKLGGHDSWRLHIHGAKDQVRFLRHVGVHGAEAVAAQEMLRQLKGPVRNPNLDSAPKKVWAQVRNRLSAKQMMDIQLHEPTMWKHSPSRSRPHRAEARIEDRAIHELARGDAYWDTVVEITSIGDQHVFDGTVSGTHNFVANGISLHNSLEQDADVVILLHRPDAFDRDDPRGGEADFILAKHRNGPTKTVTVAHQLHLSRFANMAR
In words: DnaB intein splicing inhibitors, dose response, biochemical, cell-free fluorescence (AID 449749). It counts as functional.

The target in another assay is Cytochrome P450 2C19 (Homo sapiens, UniProt P33261). In words: Cytochrome panel assay with activity outcomes. Panel member name: p450-cyp2c19 Compounds with AC50 equal or less than 10 uM are considered active. It is filed as functional. As to conditions: read-out: AC50.
Sequence of Cytochrome P450 2C19 (P33261 whole entry): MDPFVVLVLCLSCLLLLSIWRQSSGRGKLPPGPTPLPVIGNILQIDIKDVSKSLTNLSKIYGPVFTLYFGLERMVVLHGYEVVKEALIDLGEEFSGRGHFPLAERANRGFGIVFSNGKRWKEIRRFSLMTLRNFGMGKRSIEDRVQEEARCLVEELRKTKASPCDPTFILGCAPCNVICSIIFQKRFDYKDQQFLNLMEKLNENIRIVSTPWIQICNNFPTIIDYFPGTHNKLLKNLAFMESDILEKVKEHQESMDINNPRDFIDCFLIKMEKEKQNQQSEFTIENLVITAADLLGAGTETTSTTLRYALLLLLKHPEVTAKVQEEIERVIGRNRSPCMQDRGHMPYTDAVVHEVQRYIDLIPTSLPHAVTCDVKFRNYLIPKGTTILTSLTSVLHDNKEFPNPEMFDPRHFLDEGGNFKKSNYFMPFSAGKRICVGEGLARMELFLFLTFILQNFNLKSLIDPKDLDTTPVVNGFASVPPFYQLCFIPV

The source made the active and inactive calls.

Sequence of Cytochrome P450 2C9 (P11712 whole entry): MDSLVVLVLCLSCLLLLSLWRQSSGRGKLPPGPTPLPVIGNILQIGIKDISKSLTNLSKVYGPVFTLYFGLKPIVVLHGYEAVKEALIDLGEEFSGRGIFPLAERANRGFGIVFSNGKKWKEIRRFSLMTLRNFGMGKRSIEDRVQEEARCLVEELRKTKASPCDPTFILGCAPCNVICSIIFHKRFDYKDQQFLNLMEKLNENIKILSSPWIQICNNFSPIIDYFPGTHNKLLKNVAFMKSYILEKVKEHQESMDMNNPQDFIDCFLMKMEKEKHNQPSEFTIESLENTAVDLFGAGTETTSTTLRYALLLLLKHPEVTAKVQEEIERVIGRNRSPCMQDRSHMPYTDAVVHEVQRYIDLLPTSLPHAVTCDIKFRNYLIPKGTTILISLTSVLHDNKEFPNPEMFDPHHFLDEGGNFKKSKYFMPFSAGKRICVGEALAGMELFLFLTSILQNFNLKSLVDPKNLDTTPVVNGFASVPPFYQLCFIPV

Usually EC50 stands for the concentration giving half of the maximal effect. As for `CC(C)CCn1c(N)c(S(=O)(=O)c2cccs2)c2nc3ccccc3nc21`, the EC50 in assay [1] was > 120 µM (not active); in assay [2] it was > 120 µM (not active); in [3], 69 µM (active).
With `COC(=O)c1ccc(COC(=O)c2nn(C)c(=O)c3ccccc23)cc1`, the EC50 is > 120 µM (not active) in the assay on H4, 15.6 µM (active) in assay [4] and 14.1 µM (active) in assay [5].
Turning to `Cc1cc(Oc2ccc3ccccc3c2)nc(SCC(=O)c2ccccc2)n1`, the results for the EC50 in assay [1], in [2] and in [3] were 26.9 µM (active), 15 µM (active) and > 120 µM (not active), respectively.
By AC50 is commonly meant the concentration at which the activity in the assay is half-maximal. For `Cc1nn(C)c(C)c1CNC(=O)c1cnn2c1NC(c1ccccc1)CC2C(F)(F)F` (centres undefined), the AC50 at Cytochrome P450 2C9 is 15.8 µM (inconclusive).
On to `CCOC(=O)N1CCC(NC(=O)c2ccc3c(c2)sc2nc(-c4cccc(OC)c4)cn23)CC1`, for which the EC50 in the assay with H4 was 7.29 µM (active); in assay [4], 28.6 µM (active); in assay [5] it was 12.6 µM (active).
Regarding `COc1cc(-c2onc3ccc(Br)cc23)cc(OC)c1OC`, the EC50 was 4.29 µM (active) in [1], 10.8 µM (active) in [2] and > 120 µM (not active) in assay [3].
On the same counts, the results for `CC1CCc2nc(NC(=O)C3COc4ccccc4O3)sc2C1` (centres undefined) are 5.45 µM (active), 10 µM (active) and 5.93 µM (inconclusive).
For `CC(C)[C@@H]1NC(=O)[C@H](CCCCN)NC(=O)[C@H](Cc2c[nH]c3ccccc23)NC(=O)[C@H](Cc2ccc(O)cc2)NC(=O)[C@H](C)N(C)C(=O)[C@H](Cc2ccccc2)NC1=O`, at Cytochrome P450 2C9, the AC50 is 25.1 µM (inconclusive).
Regarding `COc1cc(N=C(S)N2CCOCC2)c(OC)cc1Cl`, the EC50 (with H4; in assay [4]; in assay [5]) was > 120 µM (not active) in each case.
In the case of `COC(=O)c1cnn(-c2nc(-c3ccccc3)cs2)c1N`, the EC50 with H4 was > 120 µM (not active); in assay [4], 0.585 µM (active); in [5] it was 72.2 µM (active).
`O=C(OCc1nc2ccccc2[nH]1)C12CC3CC(CC(C3)C1)C2`: the AC50 is 1.12 µM (inconclusive) on Cytochrome P450 3A4 and 14.1 µM (inconclusive) at Cytochrome P450 2C9.
Taken in the same sequence, the figures for `O=C(CCN1CCN(CC(=O)Nc2ccccc2Cl)CC1)Nc1ccccc1F` were 20 µM (inconclusive) and 10 µM (inconclusive).
Regarding `COC(=O)c1cc(CSc2nc3ccccc3[nH]2)oc1C`, the EC50 in assay [4] is 12.8 µM (active); in assay [5], 31.9 µM (active).
In the case of `C=CCOc1ccc(C(=O)C2=C(O)C(=O)N(CCCn3ccnc3)C2c2cccs2)cc1` (centres undefined), the EC50 is > 120 µM (not active) in the assay with H4, > 120 µM (not active) in assay [4] and 12 µM (active) in assay [5].
Turning to `O=C(c1ccccc1)N1C(=O)C(c2ccccc2)Oc2ccccc21` (centres undefined), the EC50 in assay [1], in [2] and in [3] was > 120 µM (not active) throughout.
On to `O=C(Nc1cccc(OC(=O)c2ccco2)c1)c1ccco1`, for which the AC50 at Cytochrome P450 2C9 was 25.1 µM (inconclusive); in assay [6] it was 21.4 µM (active). Moreover, the EC50 at Protein RecA was 10.1 µM (active).
For `O=C(c1cc(C(F)(F)F)cc(C(F)(F)F)c1)N1CCC2(CCCN(Cc3ccncc3)C2)CC1`, the results for the AC50 at Cytochrome P450 3A4, at Cytochrome P450 2C9 and on Cytochrome P450 2C19 were 10 µM (inconclusive), 7.94 µM (inconclusive) and 25.1 µM (inconclusive), respectively.
For the compound `O=c1c([N+](=O)[O-])c(N2CCOCC2)c2ccccc2n1Cc1ccccc1`, the figures for the EC50 in assay [1], in assay [2] and in [3] were > 120 µM (not active), > 120 µM (not active) and 19 µM (active), respectively.
On to `Cc1ccc2nc(-c3ccc(S(=O)(=O)N4CCCCC4)cc3)cn2c1`, for which the figures for the EC50 (in the assay on H4; in assay [4]; in assay [5]) were 14.9 µM (active), > 120 µM (not active) and 24.4 µM (active), respectively.
For the compound `CC1CC1C(=O)OCC(=O)NC(=O)NC12CC3CC(CC(C3)C1)C2` (centres undefined), the EC50 is 15.4 µM (active) in the assay on H4, 13.1 µM (active) in assay [4] and 21.1 µM (active) in assay [5].
On to `COC(=O)C1=C(NC(=O)c2cccs2)CCS1`, for which the values for the AC50 at Cytochrome P450 2C9 and at Cytochrome P450 2C19 were 39.8 µM (inconclusive) and 17.8 µM (inconclusive), respectively.
With `CS(=O)(=O)NNC(=O)CN1C(=O)C2C3C=CC(C3)C2C1=O` (centres undefined), the EC50 in assay [1] is > 120 µM (not active); in [2], 22.1 µM (active); in assay [3], > 120 µM (not active).
`N#Cc1cccc(-c2nc(NCc3cccnc3)c3ccccc3n2)c1`: the AC50 at Cytochrome P450 2C9 is 1.58 µM (inconclusive).
As for `C/C(=N\NC(N)=O)c1ccc(Cl)cc1`, the half-maximal activity concentration (AC50) on Cytochrome P450 2C9 is 2 µM (inconclusive); at Cytochrome P450 2C19 it was 31.6 µM (inconclusive).
Consider `CC1CCCC(/C=N/c2ccc3c(c2)OCO3)=C1O` (centres undefined), for which the values for the EC50 (in the assay on H4; in assay [4]; in [5]) were 39.1 µM (active), 13.7 µM (active) and 16.1 µM (active), respectively.
